From ChEMBL document CHEMBL1134970, “The TosMIC approach to 3-(oxazol-5-yl) indoles: application to the synthesis of indole-based IMPDH inhibitors” (Bioorg Med Chem Lett, 2002)

Tests used:
CCRF-CEM = experiment: Inhibitory concentration against T-cell proliferation response in a CEM cell line (BMS-337197,CEM); type: functional, cell-based; conditions: Homo sapiens
[1] = biological target: Inosine-5'-monophosphate dehydrogenase 2 (Homo sapiens, UniProt P12268); experiment: Inhibitory concentration against Inosine-5'-monophosphate dehydrogenase 2 was determined

With `Cc1ccc(-c2cnc(Nc3ccc4c(-c5cnco5)c[nH]c4c3)o2)cc1` the IC50 (CCRF-CEM) was > 10000 nM and the IC50 [1] was 205 nM.

In the case of `Cc1cccc(NC(=O)Nc2ccc3c(-c4cnco4)cn(C)c3c2)c1`, the IC50 [1] is reported as > 5000 nM.

In the case of `Cc1ccc(NC(=O)Nc2ccc3c(-c4cnco4)cn(C)c3c2)cc1`, the IC50 [1] is reported as > 5000 nM.

For `Cc1cccc(NC(=O)Nc2ccc3c(-c4cnco4)c[nH]c3c2)c1`, the IC50 (CCRF-CEM) was > 10000 nM and the IC50 [1] was 200 nM.

In the case of `COc1cc(Nc2ncc(-c3ccccc3N(C)C(=O)CN3CCOCC3)o2)ccc1-c1cnco1`, the IC50 (CCRF-CEM) is reported as 590 nM and the IC50 [1] is reported as 16 nM.

With `Cc1ccccc1-c1cnc(Nc2ccc3c(-c4cnco4)c[nH]c3c2)o1` the IC50 (CCRF-CEM) was > 10000 nM and the IC50 [1] was 38 nM.

Compound `CC(=O)OCC(=O)N(C)c1ccccc1-c1cnc(Nc2ccc3c(-c4cnco4)c[nH]c3c2)o1` has an IC50 (CCRF-CEM) of 1000 nM and an IC50 [1] of 7 nM.

With `COc1cc(NC(=O)Nc2cccc(C)c2)ccc1-c1cnco1` the IC50 (CCRF-CEM) was 1000 nM and the IC50 [1] was 19 nM.

In the case of `c1ccc(-c2cnc(Nc3ccc4c(-c5cnco5)c[nH]c4c3)o2)cc1`, the IC50 (CCRF-CEM) is reported as > 10000 nM and the IC50 [1] is reported as 93 nM.

With `O=C(Nc1ccccc1)Nc1ccc2c(-c3cnco3)c[nH]c2c1` the IC50 (CCRF-CEM) was > 10000 nM and the IC50 [1] was 40 nM.

With `CN(C(=O)CN1CCOCC1)c1ccccc1-c1cnc(Nc2ccc3c(-c4cnco4)c[nH]c3c2)o1` the IC50 (CCRF-CEM) was 3000 nM and the IC50 [1] was 35 nM.

For `Cc1ccc(NC(=O)Nc2ccc3c(-c4cnco4)c[nH]c3c2)cc1`, the IC50 (CCRF-CEM) was > 10000 nM and the IC50 [1] was 11 nM.

With `Cc1ccccc1NC(=O)Nc1ccc2c(-c3cnco3)c[nH]c2c1` the IC50 (CCRF-CEM) was 9700 nM and the IC50 [1] was 35 nM.

Work on `Cc1cccc(-c2cnc(Nc3ccc4c(-c5cnco5)c[nH]c4c3)o2)c1` yielded an IC50 (CCRF-CEM) of 1500 nM and an IC50 [1] of 77 nM.
